This series can be described thus: pH-profile drug release in dialysis bag, consecutive simulated gastrointestinal media. It counts as physicochemical. How it is done:
Rv (Sigma-Aldrich, USA) stock solution of 15 μg/mL was prepared in distilled water. Using UV spectrophotometric analysis (Shimadzu-UV-Vis Spectrophotometers, Japan), the analysis was conducted at a wavelength of 306 nm in a 1 cm cell compared to a blank solution of distilled water. To construct a calibration curve, dilutions had been prepared (FIG. 1). The ? -max selection was based on the UV-scanning from 200-400 nm of pure Rv solution. The formulations' drug-content assays for drug encapsulation efficiency were accomplished by dissolving the formulation in ethanol and centrifuging it for 30 minutes at 1500 rpm. After that, an accurate volume of the supernatant transparent layer had been measured for UV-absorbance at 306 nm for Rv content. This ? -max was unique for Rv only (Zhang Lingtuo et al. 2019).
The formulations in Table 1 containing 500 mg of the Rv were each encountered in the dialysis bag (14000 Daltons cut off, Sigma-Aldrich, USA). The dry weights of the formulations were reconstituted with distilled water before enclosing them inside the dialysis bag. The release media volume was 300 mL. The drug-release experiment was designed to simulate the gastrointestinal-pH and transit time after oral ingestion. As a result, the dialysis membranes' surrounding media simulated gastric media (0.1N HCl-pH 1.2), proximal intestine simulated media (phosphate buffer-pH 6.5), the distal area of the small intestine (phosphate buffer-pH 6.8), and phosphate buffer media-pH 7.4 of descending colon simulated media, consecutively. The transit time for each simulated media was two hrs (Amidon et al. 2015; Maurer et al. 2015; Bani-Jaber and Abdullah 2020). The dialysis membranes were subjected to 37±0.5° C. in a water bath shaker of 75 rpm speed. Total release media replacement was made after each hour of dissolution to simulate body sink conditions. This experiment was conducted to optimize the formulation depending on SR behavior and drug encapsulation efficiency. The optimum formula was subjected to aging, gel swelling studies, nanoparticle, and formulation's physiochemical characterizations.

Take 3,5,4-trihydroxytrans-stilbene [Rv]: the “Gastric % Release” value (0.1N HCl pH 1.2, 2 hrs, 37°C, 500 mg Rv, freshly prepared) was 16.83%. In addition, the “average total pH-profile release after 8 hrs” value (pH 1.2, 6.5, 6.8, 7.4, 2 hrs each) was 50.89%. Besides, the “Intestinal-Colonic % Release” value (pH 6.5, 6.8 and 7.4 media together (6 hrs), freshly prepared) is recorded as 34.06%. In addition, the “Proximal Intestine % Release” value (phosphate buffer pH 6.5, 2 hrs, freshly prepared) is recorded as 11.49%. Further, the “Distal Intestine % Release” value (phosphate buffer pH 6.8, 2 hrs, freshly prepared) is 12.74%. Moreover, where the note is “phosphate buffer pH 7.4, 2 hrs, freshly prepared”, the “Colon % Release” value is listed as 9.83%.

These data come from US11318090B1, “In situ gelling composition as a pH-selective and mucoadhesive sustained release drug delivery system” (King Abdulaziz University, priority 2021, dated 2022).
